Data published in patent publication US20090099195A1 (ASTRAZENECA AB, priority 2007, published 2009).

The compounds below were run against T1, hP2X3 (human Purinergic P2X receptors subtype 3), clone A (Homo sapiens, UniProt P56373) (assay: hP2X3 FLIPR calcium (Fluo-4) antagonist assay, clone A). Conditions: Human P2X3 FLIPR Clone A Mean IC50 (nM), RLE cells expressing hP2X3 clone A (AB016608); agonist 500 nM α,β-methylene-ATP.
T1 sequence (P56373 1-397): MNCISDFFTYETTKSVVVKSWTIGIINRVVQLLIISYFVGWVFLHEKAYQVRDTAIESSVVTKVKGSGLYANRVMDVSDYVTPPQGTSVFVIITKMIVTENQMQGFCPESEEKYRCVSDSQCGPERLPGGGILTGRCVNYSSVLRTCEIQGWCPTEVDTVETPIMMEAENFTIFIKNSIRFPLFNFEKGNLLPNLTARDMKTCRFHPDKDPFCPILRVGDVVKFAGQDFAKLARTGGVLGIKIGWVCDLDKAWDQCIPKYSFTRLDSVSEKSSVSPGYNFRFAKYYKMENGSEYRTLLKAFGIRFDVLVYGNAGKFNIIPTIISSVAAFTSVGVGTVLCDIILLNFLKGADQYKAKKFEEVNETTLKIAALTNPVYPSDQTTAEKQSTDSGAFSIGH
Description: The assay used a calcium indicator dye (Fluo-4) that emits fluorescence, the intensity of which is related to the concentration of calcium that entered the cell when P2X3 was activated and the channel opened. Activation of hP2X3 or rat P2X3 and rat P2X2/3 (from the coexpression of rat P2X3 and rat P2×2) is elicited the by P2X3 agonist α,β methylene-ATP (Sigma M6517), and the resulting fluorescence is measured with a FLIPR II™ instrument (Molecular Devices). Compounds are tested for their ability to inhibit the agonist-induced fluorescent signal.
For the rat P2X2/3 HEK-TREX cells, induction of the rat P2X3 expression is used to generate the rat P2X2/3 channels in HEK-TREX cells and performed by addition of 1 μg/mL tetracycline (Invitrogen) 24 h prior to compounds testing to the HEK-TREX expressing the rat P2X2 constitutively. On the day of the experiment, the cells and test compounds are prepared as follows. […] After preparing the compounds, the medium is removed from the cell plates by inversion. A loading solution of 30 μL assay buffer containing 4 μM of the calcium indicator dye FLUO-4 AM (Molecular Probes F14202) is added to each well using a Multidrop (Labsystems). […] The incubation is terminated by washing the cells four times in assay buffer using a Skatron Embla (Molecular Devices), and 25 μL of assay buffer was left in each well. Cell plates are then transferred to the FLIPR. Experiments are initiated by measuring a baseline fluorescence reading for 10 seconds, followed by the addition of 12.5 μL of cpds and data sampling for a total 280 seconds. The experiments are terminated by addition of 12.5 μL of a reference agonist (500 nM α,β-methylene-ATP) or buffer, producing a final assay volume of 50 μL followed by data sampling for an additional 280 seconds.
In P2X3 antagonist experiments (human and rat assays) data are analysed as normalised maximal peak fluorescence monitored following agonist addition and calculated as percent of relative fluorescent counts from control agonist. The dose-response antagonist inhibition curves are analyzed in a 4-parameter sigmoidal fit using a non-linear curve-fitting program (XLfit version 5.0.6, ID Business Solutions Limited, Guildford, UK).

SMILES	IC50 [nM]
CCOc1ccc([C@@H](C)Nc2nc(N3CCN(C(C)=O)CC3)nc3c2CN([C@@H](C)CC)C3=O)cc1F [Example 320, 2-(4-acetylpiperazin-1-yl)-4-{[(1R)-1-(4-ethoxy-3-fluorophenyl)ethyl]amino}-6-[(1S)-1-methylpropyl]-5,6-dihydro-7H-pyrrolo[3,4-d]pyrimidin-7-one]	69.1
CCOc1ccc([C@@H](C)Nc2nc(N3CCN(C(C)=O)CC3)nc3c2CN(C(C)C)C3=O)c(OC)c1 [Example 202, (R)-2-(4-acetylpiperazin-1-yl)-4-(1-(4-ethoxy-2-methoxyphenyl)ethylamino)-6-isopropyl-5H-pyrrolo[3,4-d]pyrimidin-7(6H)-one]	47
CC(=O)N1CCN(c2nc(N[C@H](C)c3ccc(C(F)(F)F)c(F)c3)c3c(n2)C(=O)N(C(C)C)C3)CC1 [Example 182, (R)-2-(4-acetylpiperazin-1-yl)-4-(1-(3-fluoro-4-(trifluoromethyl)phenyl)ethylamino)-6-isopropyl-5H-pyrrolo[3,4-d]pyrimidin-7(6H)-one]	271
CC(=O)N1CCN(c2nc(NC(C)c3nc4ccccc4s3)c3c(n2)C(=O)N(C(C)C)C3)CC1 (stereo not drawn) [Example 236, 2-(4-acetylpiperazin-1-yl)-4-(1-(benzo[d]thiazol-2-yl)ethylamino)-6-isopropyl-5H-pyrrolo[3,4-d]pyrimidin-7(6H)-one]	564
CCOc1ccc(CNc2nc(N3CCN(C(C)=O)CC3)nc3c2CN(C(C)C)C3=O)c(OC)c1 [Example 335, 2-(4-acetylpiperazin-1-yl)-4-(4-ethoxy-2-methoxybenzylamino)-6-isopropyl-5H-pyrrolo[3,4-d]pyrimidin-7(6H)-one]	225
CC(C)N1Cc2c(NC(C)(C)Cc3ccc(F)cc3)nc(N3CCn4ccnc4C3)nc2C1=O [Example 340, 2-(5,6-dihydroimidazo[1,2-a]pyrazin-7(8H)-yl)-4-{[2-(4-fluorophenyl)-1,1-dimethylethyl]amino}-6-(1-methylethyl)-5,6-dihydro-7H-pyrrolo[3,4-d]pyrimidin-7-one]	2710
CCOc1cc(OC)ccc1CN(C)c1nc(N2CCN(C(C)=O)CC2)nc2c1CN(C(C)C)C2=O [Example 336, 2-(4-acetylpiperazin-1-yl)-4-((2-ethoxy-4-methoxybenzyl)(methyl)amino)-6-isopropyl-5H-pyrrolo[3,4-d]pyrimidin-7(6H)-one]	1610
COCc1ccc([C@@H](C)Nc2nc(N3CCN(C(C)=O)CC3)nc3c2CN(C(C)C)C3=O)cc1F [Example 338, 2-(4-acetylpiperazin-1-yl)-4-({(1R)-1-[3-fluoro-4-(methoxymethyl)phenyl]ethyl}amino)-6-(1-methylethyl)-5,6-dihydro-7H-pyrrolo[3,4-d]pyrimidin-7-one]	2640
CCOc1ccc(CN(C)c2nc(N3CCN(C(C)=O)CC3)nc3c2CN(C(C)C)C3=O)c(OC)c1 [Example 334, 2-(4-acetylpiperazin-1-yl)-4-((4-ethoxy-2-methoxybenzyl)(methyl)amino)-6-isopropyl-5H-pyrrolo[3,4-d]pyrimidin-7(6H)-one]	2970
COc1ccc(C2CCCN2c2nc(N3CCN(C(C)=O)CC3)nc3c2CN(C(C)C)C3=O)cc1 (stereo not drawn) [Example 299, 2-(4-acetylpiperazin-1-yl)-4-[2-(4-methoxyphenyl)pyrrolidin-1-yl]-6-(1-methylethyl)-5,6-dihydro-7H-pyrrolo[3,4-d]pyrimidin-7-one]	1140
CC(=O)N1CCN(c2nc(N[C@H](C)c3ccc(CO)cc3)c3c(n2)C(=O)N(C(C)C)C3)CC1 [Example 332, (R)-2-(4-acetylpiperazin-1-yl)-4-(1-(4-(hydroxymethyl)phenyl)ethylamino)-6-isopropyl-5H-pyrrolo[3,4-d]pyrimidin-7(6H)-one]	> 30000
CC(=O)N1CCN(c2nc(N[C@H](C)c3ccc(OCC4CC4)c(F)c3)c3c(n2)C(=O)N(C(C)C)C3)CC1 [Example 322, (R)-2-(4-acetylpiperazin-1-yl)-4-(1-(4-(cyclopropylmethoxy)-3-fluorophenyl)ethylamino)-6-isopropyl-5H-pyrrolo[3,4-d]pyrimidin-7(6H)-one]	1900
COc1cc(OC(C)C)ccc1CNc1nc(N2CCN(C(C)=O)CC2)nc2c1CN(C(C)C)C2=O [Example 337, 2-(4-acetylpiperazin-1-yl)-4-(4-isopropoxy-2-methoxybenzylamino)-6-isopropyl-5H-pyrrolo[3,4-d]pyrimidin-7(6H)-one]	79.5
CC(=O)N1CCN(c2nc(N[C@H](C)c3ccc(C4CC4)cc3)c3c(n2)C(=O)N(C(C)C)C3)CC1 [Example 192, (R)-2-(4-acetylpiperazin-1-yl)-4-(1-(4-cyclopropylphenyl)ethylamino)-6-isopropyl-5H-pyrrolo[3,4-d]pyrimidin-7(6H)-one]	102

Second part, the compound after the results:

IC50 [nM]	SMILES
29.9	CC(=O)N1CCN(c2nc3c(c(N(C)Cc4cc5ccc(F)cc5cn4)n2)CN(C(C)C)C3=O)CC1 [Example 350, 2-(4-acetylpiperazin-1-yl)-4-(((7-fluoroisoquinolin-3-yl)methyl)(methyl)amino)-6-isopropyl-5H-pyrrolo[3,4-d]pyrimidin-7(6H)-one]
1050	CC(=O)N1CCN(c2nc3c(c(N(C)Cc4cc5cc(F)ccc5cn4)n2)CN(C(C)C)C3=O)CC1 [Example 349, 2-(4-acetylpiperazin-1-yl)-4-(((6-fluoroisoquinolin-3-yl)methyl)(methyl)amino)-6-isopropyl-5H-pyrrolo[3,4-d]pyrimidin-7(6H)-one]
5760	CC(=O)N1CCN(c2nc3c(c(N(C)Cc4ccc5ccn(C)c5c4)n2)CN(C(C)C)C3=O)CC1 [Example 355, 2-(4-acetylpiperazin-1-yl)-6-(1-methylethyl)-4-{methyl[(1-methyl-1H-indol-6-yl)methyl]amino}-5,6-dihydro-7H-pyrrolo[3,4-d]pyrimidin-7-one]
> 30000	CC(=O)N1CCN(c2nc3c(c(N(C)Cc4ccc5c(c4)OC(F)(F)O5)n2)CN(C(C)C)C3=O)CC1 [Example 360, 2-(4-acetylpiperazin-1-yl)-4-(((2,2-difluorobenzo[d][1,3]dioxol-5-yl)methyl)(methyl)amino)-6-isopropyl-5H-pyrrolo[3,4-d]pyrimidin-7(6H)-one]
1230	CC(=O)N1CCN(c2nc3c(c(N(C)Cc4cc5cc(C)ccc5cn4)n2)CN(C(C)C)C3=O)CC1 [Example 342, 2-(4-acetylpiperazin-1-yl)-6-isopropyl-4-(methyl((6-methylisoquinolin-3-yl)methyl)amino)-5H-pyrrolo[3,4-d]pyrimidin-7(6H)-one]
494	CC(=O)N1CCN(c2nc(NCc3ccc4c(ccn4C)c3)c3c(n2)C(=O)N(C(C)C)C3)CC1 [Example 354, 2-(4-acetylpiperazin-1-yl)-6-(1-methylethyl)-4-{[(1-methyl-1H-indol-5-yl)methyl]amino}-5,6-dihydro-7H-pyrrolo[3,4-d]pyrimidin-7-one]
574	CCOc1ccc([C@@H](C)Nc2nc(N3CCN(CC(F)(F)F)C(=O)C3)nc3c2CN(C(C)C)C3=O)cc1 [Example 363, (R)-4-(1-(4-ethoxyphenyl)ethylamino)-6-isopropyl-2-(3-oxo-4-(2,2,2-trifluoroethyl)piperazin-1-yl)-5H-pyrrolo[3,4-d]pyrimidin-7(6H)-one]
1060	CC(=O)N1CCN(c2nc(NCc3ccc4ccn(C)c4c3)c3c(n2)C(=O)N(C(C)C)C3)CC1 [Example 356, 2-(4-acetylpiperazin-1-yl)-6-(1-methylethyl)-4-{[(1-methyl-1H-indol-6-yl)methyl]amino}-5,6-dihydro-7H-pyrrolo[3,4-d]pyrimidin-7-one]
356	CCN1CCN(c2nc3c(c(N(C)Cc4cc5ccccc5cn4)n2)CN(C(C)C)C3=O)CC1=O [Example 362, 2-(4-ethyl-3-oxopiperazin-1-yl)-6-isopropyl-4-((isoquinolin-3-ylmethyl)(methyl)amino)-5H-pyrrolo[3,4-d]pyrimidin-7(6H)-one]
163	CCOc1ccc([C@@H](C)Nc2nc(N3CCN(C(C)=O)CC3)nc3c2CN(C(C)C)C3=O)c(OCC)c1 [Example 357, (R)-2-(4-acetylpiperazin-1-yl)-4-(1-(2,4-diethoxyphenyl)ethylamino)-6-isopropyl-5H-pyrrolo[3,4-d]pyrimidin-7(6H)-one]
61.1	CC(=O)N1CCN(c2nc3c(c(N(C)Cc4cc5ccc(C)cc5cn4)n2)CN(C(C)C)C3=O)CC1 [Example 353, 2-(4-acetylpiperazin-1-yl)-6-isopropyl-4-(methyl((7-methylisoquinolin-3-yl)methyl)amino)-5H-pyrrolo[3,4-d]pyrimidin-7(6H)-one]
2720	CC(=O)N1CCN(c2nc3c(c(N(C)Cc4cc5cc(Cl)ccc5cn4)n2)CN(C(C)C)C3=O)CC1 [Example 348, 2-(4-acetylpiperazin-1-yl)-4-(((6-chloroisoquinolin-3-yl)methyl)(methyl)amino)-6-isopropyl-5H-pyrrolo[3,4-d]pyrimidin-7(6H)-one]
795	CC(C)N1Cc2c(nc(N3CCN(CC(F)(F)F)C(=O)C3)nc2N(C)Cc2cc3ccccc3cn2)C1=O [Example 364, 6-isopropyl-4-((isoquinolin-3-ylmethyl)(methyl)amino)-2-(3-oxo-4-(2,2,2-trifluoroethyl)piperazin-1-yl)-5H-pyrrolo[3,4-d]pyrimidin-7(6H)-one]

These compounds were tested against T2, hP2X3 (human Purinergic P2X receptors subtype 3), clone B (Homo sapiens, UniProt P56373) (assay: hP2X3 FLIPR calcium (Fluo-4) antagonist assay, clone B). Conditions: Human P2X3 FLIPR Clone B IC50 (nM), RLE cells expressing hP2X3 clone B (NM_002559); agonist 500 nM α,β-methylene-ATP.
T2 sequence (P56373 1-397): T1 sequence (P56373 1-397)

IC50 [nM]	SMILES
54	CCOc1ccc([C@@H](C)Nc2nc(N3CCN(C(C)=O)CC3)nc3c2CN([C@@H](C)CC)C3=O)cc1F [Example 320, 2-(4-acetylpiperazin-1-yl)-4-{[(1R)-1-(4-ethoxy-3-fluorophenyl)ethyl]amino}-6-[(1S)-1-methylpropyl]-5,6-dihydro-7H-pyrrolo[3,4-d]pyrimidin-7-one]
51	CCOc1ccc([C@@H](C)Nc2nc(N3CCN(C(C)=O)CC3)nc3c2CN(C(C)C)C3=O)c(OC)c1 [Example 202, (R)-2-(4-acetylpiperazin-1-yl)-4-(1-(4-ethoxy-2-methoxyphenyl)ethylamino)-6-isopropyl-5H-pyrrolo[3,4-d]pyrimidin-7(6H)-one]
240	CC(=O)N1CCN(c2nc(N[C@H](C)c3ccc(C(F)(F)F)c(F)c3)c3c(n2)C(=O)N(C(C)C)C3)CC1 [Example 182, (R)-2-(4-acetylpiperazin-1-yl)-4-(1-(3-fluoro-4-(trifluoromethyl)phenyl)ethylamino)-6-isopropyl-5H-pyrrolo[3,4-d]pyrimidin-7(6H)-one]
